Experimental data: PubChem BioAssay (NCI)
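Dose response: 5 concentrations. Exposure: 48 h. Format: 96-well plates. Endpoint: linear interpolation; highest concentration if not reached. GI50 = concentration required for 50% inhibition of growth. The concentration for full growth arrest is given as TGI.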

Legend:
Experiment in all cases: NCI-60 cell line screen, 48 h
UACC-62 melanoma = test system: UACC-62 melanoma
CAKI-1 renal = test system: CAKI-1 renal
SF-295 CNS = test system: SF-295 CNS
COLO 205 colon = test system: COLO 205 colon
ACHN renal = test system: ACHN renal
SK-MEL-2 melanoma = test system: SK-MEL-2 melanoma
MOLT-4 leukemia = test system: MOLT-4 leukemia
T-47D breast = test system: T-47D breast
MDA-N = test system: MDA-N
MCF7 breast = test system: MCF7 breast
MDA-MB-435 = test system: MDA-MB-435

Row | SMILES | TGI (UACC-62 melanoma) | TGI (CAKI-1 renal) | TGI (SF-295 CNS) | TGI (COLO 205 colon) | TGI (ACHN renal) | TGI (SK-MEL-2 melanoma) | TGI (MOLT-4 leukemia) | TGI (T-47D breast) | TGI (MDA-N) | TGI (MCF7 breast) | TGI (MDA-MB-435) | GI50 (MCF7 breast)
1 | COc1ccc2c(OC)c3ccoc3nc2c1O | > 100 µM | > 100 µM | > 100 µM | > 100 µM | > 100 µM | > 100 µM | > 100 µM | – | – | – | – | –
2 | CC1CCCc2c(-c3ccc(Cl)cc3)nc(N)c(C#N)c21 (stereo not drawn) | 40.2 µM | > 100 µM | – | 48.3 µM | > 100 µM | 67.6 µM | 69.8 µM | 35.6 µM | 53.4 µM | > 100 µM | > 100 µM | –
3 | Cc1ccc(-c2c(C#N)c(-c3ccc(N(C)C)cc3)c(C#N)c(=O)n2NS(=O)(=O)c2ccccc2)cc1 | > 100 µM | 98.3 µM | > 100 µM | > 100 µM | > 100 µM | > 100 µM | 52.8 µM | – | > 100 µM | > 100 µM | > 100 µM | –
4 | O=C1/C(=C/c2cccc([N+](=O)[O-])c2)COc2ccccc21 | 3.19 µM | > 100 µM | > 94.5 µM | > 100 µM | 8.04 µM | 20 µM | 6.62 µM | – | – | – | – | –
5 | C1=CCN(c2ccccc2)CC1 | > 100 µM | – | > 100 µM | > 100 µM | 56.8 µM | > 100 µM | > 100 µM | – | – | – | – | –
6 | CCN(CC)CCCCC1CCN(CC(=O)N2c3ccccc3NC(=O)c3ccccc32)CC1 | > 100 µM | > 100 µM | > 100 µM | > 100 µM | – | > 100 µM | > 100 µM | – | – | – | – | –
7 | Cn1c(=O)nc2n(CCO)c(-c3ccccc3)c(-c3ccccc3)nc-2c1=O | > 100 µM | > 100 µM | > 100 µM | > 100 µM | > 100 µM | > 100 µM | > 100 µM | > 100 µM | > 100 µM | – | > 100 µM | –
8 | NN/C(=N\S(=O)(=O)c1cc(Cl)c(Oc2ccc([N+](=O)[O-])cc2Cl)c(Cl)c1)Nc1ccc(Cl)cc1 | 28.8 µM | 40.7 µM | 50.4 µM | 29 µM | 67.4 µM | 35.3 µM | 85.8 µM | 56.5 µM | 33 µM | 58.4 µM | – | –
9 | Nc1ccc(N=Nc2ccc(/C=C/c3ccc(N=Nc4ccc(N)c5ccc(S(=O)(=O)O)cc45)cc3S(=O)(=O)O)c(S(=O)(=O)O)c2)c2cc(S(=O)(=O)O)ccc12 | > 100 µM | – | > 100 µM | > 100 µM | – | > 100 µM | > 100 µM | – | – | > 100 µM | – | –
10 | CC(=O)OC1[C@H]2c3cc4c(cc3CN3CCC(C[C@@H]1OC(C)=O)C23)OCO4 (stereo partly drawn) | > 75 µM | – | > 75 µM | > 75 µM | > 75 µM | – | > 75 µM | – | – | – | – | –
11 | CCCCCCC(N)(CCCCCC)C(=O)Nn1c(C)ccc1C | > 100 µM | – | > 100 µM | > 100 µM | > 100 µM | > 100 µM | > 100 µM | > 100 µM | > 100 µM | 59.4 µM | > 100 µM | –
12 | O=C1/C(=C/c2cccc([N+](=O)[O-])c2)CCCc2ccccc21 | 21.6 µM | 30.1 µM | 27.7 µM | 32.8 µM | 26.6 µM | 23 µM | 34 µM | – | 22.7 µM | 15.3 µM | 21.4 µM | –
13 | COc1cc(C2c3cccc4cccc(c34)C3CCC(=O)N32)cc(O)c1O (stereo not drawn) | > 50 µM | – | > 50 µM | > 50 µM | > 50 µM | > 50 µM | 41.6 µM | > 50 µM | > 50 µM | > 50 µM | > 50 µM | –
14 | CSc1nc(C)cc(Nc2ccc(O)c(CN3CCCCC3)c2)n1 | > 100 µM | > 100 µM | > 100 µM | > 100 µM | > 100 µM | – | > 100 µM | > 100 µM | 75.4 µM | > 100 µM | > 100 µM | –
15 | N#Cc1c(-c2ccccc2)c(C#N)c(=O)n(NS(=O)(=O)c2ccccc2)c1O | > 100 µM | > 100 µM | > 100 µM | > 100 µM | > 100 µM | > 100 µM | > 100 µM | – | > 100 µM | > 100 µM | > 100 µM | –
16 | O=c1c2cc(I)ccc2nc(-c2cccs2)n1Nc1ccccc1 | > 100 µM | 65.9 µM | 32.9 µM | 3.66 µM | > 100 µM | 1.63 µM | > 100 µM | – | – | > 100 µM | > 100 µM | 1.99 µM
17 | CC1=NC(=Cc2ccc(Cl)cc2)C(=O)N1n1c(-c2ccccc2)nc2ccccc2c1=O | > 100 µM | 69.1 µM | > 100 µM | > 100 µM | 46.7 µM | – | > 100 µM | 74.3 µM | > 100 µM | > 100 µM | > 100 µM | –
18 | Cc1ccc(S(=O)(=O)N(c2ccccc2F)C2CCCCC2O)cc1 (stereo not drawn) | > 100 µM | – | > 100 µM | 71.3 µM | > 100 µM | 93.7 µM | – | – | 50.1 µM | 48.5 µM | 48.5 µM | –
19 | Oc1cn(-c2ccc(Cl)cc2)nc1-c1nnc(Nc2ccccc2)o1 | 30.6 µM | > 100 µM | 39.2 µM | 51 µM | 71.6 µM | 38.3 µM | – | 50.3 µM | – | 33.9 µM | 34.3 µM | –
20 | CC(=O)c1c2c(cc3c1CC1(Cc4cc5c(cc4C1)CCC5)C3)CCC2 | – | > 100 µM | > 100 µM | – | > 100 µM | > 100 µM | > 100 µM | > 100 µM | > 100 µM | > 100 µM | > 100 µM | –
21 | C/C(C=O)=N\Nc1cc(C)c2ccccc2n1 | 28.2 µM | 30.7 µM | 39.4 µM | 33.2 µM | 29.9 µM | 37.8 µM | 36.8 µM | 39.9 µM | – | 29.5 µM | 38.1 µM | –
22 | Oc1ccccc1C=Nc1ccc(Oc2ccc(Cl)cc2)c(Cl)c1 | 49.6 µM | 95.4 µM | 48.8 µM | 41.1 µM | 88.3 µM | 32.4 µM | > 100 µM | 40.1 µM | – | > 100 µM | > 100 µM | –
